Measured values from PMC11984924, “Dipeptidic Phosphonates: Potent Inhibitors of Pseudomonas aeruginosa Elastase B Showing Efficacy in a Murine Keratitis Model” (Advanced Science, 2025).

Key:
hERG potassium channel = molecular target: T1, hERG potassium channel (Homo sapiens, UniProt Q12809); assay: SafetyScreen44: hERG binding
T1 construct: Eurofins Cerep SA (CRO)
Text: (§1) Moreover, we explored the safety profile of frontrunner (R)‐30 in more detail in order to detect additional crucial off‐target interactions. For this purpose, we employed the SafetyScreen44 in vitro panel comprising selected binding, inhibition and uptake assays.^[ [35] ^] The panel is a specialized pharmacological profiling tool that tests compounds against 44 key molecular targets, aiming to identify potential safety risks early in drug discovery. […]
(§2) The off-target Safety Screen44TM was performed by the CRO Eurofins Cerep SA (Celle-
(§3) L'Evescault, France) according to their protocols.[13] […]
(§4) MMP-1 MMP-2 MMP-3 TACE (ADAM17)
(§5) Compound [% inhibition at [% inhibition at [% inhibition at [% inhibition at 100

[1] = molecular target: T2, 5‐hydroxytryptamin transporter (5‐HTT) (Homo sapiens, UniProt P31645); assay: SafetyScreen44: 5-HTT binding
T2 construct: Eurofins Cerep SA (CRO)
T2 sequence (P31645 whole entry): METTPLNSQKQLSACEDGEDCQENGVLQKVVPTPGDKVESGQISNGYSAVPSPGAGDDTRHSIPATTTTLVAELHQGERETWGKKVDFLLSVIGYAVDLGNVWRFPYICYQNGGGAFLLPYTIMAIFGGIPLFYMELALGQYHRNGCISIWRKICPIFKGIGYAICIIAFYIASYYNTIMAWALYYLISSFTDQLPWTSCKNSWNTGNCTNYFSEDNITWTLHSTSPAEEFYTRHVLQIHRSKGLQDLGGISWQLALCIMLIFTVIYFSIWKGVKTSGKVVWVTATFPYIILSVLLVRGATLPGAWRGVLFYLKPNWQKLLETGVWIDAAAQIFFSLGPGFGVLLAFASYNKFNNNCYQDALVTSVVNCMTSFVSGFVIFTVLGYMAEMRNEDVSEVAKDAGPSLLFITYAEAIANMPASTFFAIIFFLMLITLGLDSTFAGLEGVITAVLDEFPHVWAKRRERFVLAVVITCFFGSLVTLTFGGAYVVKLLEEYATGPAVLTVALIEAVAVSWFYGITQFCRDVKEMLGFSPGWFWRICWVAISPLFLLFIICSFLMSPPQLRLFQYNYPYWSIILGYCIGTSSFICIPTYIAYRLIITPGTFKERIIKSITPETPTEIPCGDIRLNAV
Text: as §1, §2, §3, §4, §5

[2] = (R)-30 levels in serum of keratitis mice; format: in vivo; conditions: C57BL/6, mouse, 5 µL of 1 mg/mL (R)-30 per dose (nine doses, every 8 h), keratitis mice after topical ocular dosing
Description: 3.15 Bioanalytical sample preparation of keratitis samples for determination of
concentration of ( R)-30 in eye and serum
All PD serum and eye homogenate samples were analyzed via HPLC -MS/MS using an Agilent
1290 Infinity II HPLC system and coupled to an AB Sciex QTrap6500+ mass spectrometer.
First, a calibration curve was prepared by spiking different concentrations of (R)-30 into the
respective matrix (mouse serum (pooled, from CD -1 mice) for plasma samples, isotonic
sodium chloride solution for eye homogenate samples). Caffeine was used as an internal
standard. In addition, quality control samples (QCs) were prepared for (R)-30 with the
respective matrix. The following extraction procedure was used: 7.5 μL of a serum sample
(calibration samples, QCs or PD samples) was extracted with 37.5 μL of methanol containing
12.5 ng/mL of caffeine as internal standard for 5 min at 2,000 r pm on an Eppendorf MixMate®
vortex mixer. Then samples (serum) were spun down at 13,000 rpm for 5 min. Supernatants
were transferred to standard HPLC-glass vials. 50 μL of an eye homogenate sample […]
standard were analyzed using MultiQuant 3.0 software (AB Sciex). […]
for quantification are marked with a ‘Q’ in the table, the other MS/MS pairs for the respective
compound were used for qualification. Peaks of PD samples were quantified using the
calibration curve. The accuracy of the calibration curve was determined using QC s […]

[3] = Stability in mouse liver microsomes; format: in vitro ADME; conditions: read-out: Mouse Liver Microsomes t1/2
Description: (§6) Samples were stored on ice until the end of the incubation and precipitated protein was removed by centrifugation (15 min, 4 °C, 4,000 g). Concentration of the remaining test […]
(§7) compound at the different time points was analyzed by HPLC-MS/MS (TSQ Quantum Access […]
(§8) MAX, Thermo Fisher, Dreieich, Germany) and used to determine half -life (t1/2) and intrinsic […]
(§9) Species profiling was conducted as above using 0.5 mg/mL pooled mouse, rat or minipig liver microsomes (Xenotech, Kansas City, USA) with 2 mM NADPH and 10 mM MgCl2 and testosterone, verapamil and ketoconazole as reference compounds. […]
(§10) Thermo Fisher, Dreieich, Germany) and used to determine half-life (t1/2).
(§11) Table S2: Additional in vitro ADMET data for selected dipeptides. n.d.: not determined.
(§12) Kinetic Liver S9 Clint [µL/mg/min] Plasma t1/2 [min] LogD7.4 […]
(§13) pH 7.4 [µM] Mouse Human Mouse Human

[4] = Stability in minipig liver microsomes; format: in vitro ADME; conditions: Göttingen, read-out: Minipig Liver Microsomes t1/2
Description: as §6, §7, §8, §9, §10, §11, §12, §13

zebrafish embryos = assay: Zebrafish embryo toxicity; format: in vivo; conditions: up to 100 µM, up to five days post fertilization
Description: Table S8: Percent (%) inhibition of the metabolic activity of three human cell lines HepG2 (hepatocellular carcinoma cells), HEK293 (human embryonic kidney 293 cells) and A549 (lung carcinoma epithelial cells). Results are means and SD of at least two independent ex periments.
3.10 Evaluation of Zebrafish embryo toxicity
The experiment was performed according to a procedure described in the literature with minor modifications using zebrafish embryos of the AB wild -type line at 1 day post fertilization (dpf). A detailed protocol has been given in our recent publication.[16]
Starting exposure ar 2 dpf. Ten larvae were tested for each condition. Dpf: days post fertilization.
3.11 Tolerability study in male CD1 mice
This in vivo experiment was carried out at the CRO Selvita (Zagreb, Croatia). The study was performed in an AAALAC I- approved Facility. The standard study plan relating to this study was reviewed by the Ethics Committee (CARE- Zagreb) as required by International Laws/Regulations and Croatian Low on Animal Welfare (“The Animal Protection Act”, Official Gazette, NN 135/06 and NN 37/13) and Animal Welfare Officer. Animals were kept in solid […]
bottom cages ([…] S.p A., Italy, Type III polysulphone cage); 425 mm x 266 mm x 180 mm; 3 animals in each cage. The animals were kept on 4 cm thick layer of corn cob grit, […]
(1 picture or pasted object on this page, not shown here)

[5] = Plasma stability, Göttingen minipig; format: in vitro ADME; conditions: read-out: Minipig Plasma t1/2
Description: To determine stability in plasma, the compound (1 µM) was incubated with pooled CD -1 […]
mouse/human/Wistar rat or Göttingen minipig plasma (Neo Biotech, Nanterre, France).
Samples were taken by mixing aliquots with 4 volumes of acetonitrile containing internal […]
standard (125 nM diphenhydramine). The plasma stability of procain, propantheline and diltiazem were determined in parallel to confirm the enzymatic activity. Samples were stored […]
on ice until the end of the incubation and precipitated protein was removed by centrifugation […]
(15 min, 4 °C, 4,000 g, two centrifugation steps). Concentration of the remaining test compound at the different time points was analyzed by HPLC-MS/MS (TSQ Quantum Access MAX, […]
as §10, §11, §12, §13

T1 sequence (Q12809 whole entry): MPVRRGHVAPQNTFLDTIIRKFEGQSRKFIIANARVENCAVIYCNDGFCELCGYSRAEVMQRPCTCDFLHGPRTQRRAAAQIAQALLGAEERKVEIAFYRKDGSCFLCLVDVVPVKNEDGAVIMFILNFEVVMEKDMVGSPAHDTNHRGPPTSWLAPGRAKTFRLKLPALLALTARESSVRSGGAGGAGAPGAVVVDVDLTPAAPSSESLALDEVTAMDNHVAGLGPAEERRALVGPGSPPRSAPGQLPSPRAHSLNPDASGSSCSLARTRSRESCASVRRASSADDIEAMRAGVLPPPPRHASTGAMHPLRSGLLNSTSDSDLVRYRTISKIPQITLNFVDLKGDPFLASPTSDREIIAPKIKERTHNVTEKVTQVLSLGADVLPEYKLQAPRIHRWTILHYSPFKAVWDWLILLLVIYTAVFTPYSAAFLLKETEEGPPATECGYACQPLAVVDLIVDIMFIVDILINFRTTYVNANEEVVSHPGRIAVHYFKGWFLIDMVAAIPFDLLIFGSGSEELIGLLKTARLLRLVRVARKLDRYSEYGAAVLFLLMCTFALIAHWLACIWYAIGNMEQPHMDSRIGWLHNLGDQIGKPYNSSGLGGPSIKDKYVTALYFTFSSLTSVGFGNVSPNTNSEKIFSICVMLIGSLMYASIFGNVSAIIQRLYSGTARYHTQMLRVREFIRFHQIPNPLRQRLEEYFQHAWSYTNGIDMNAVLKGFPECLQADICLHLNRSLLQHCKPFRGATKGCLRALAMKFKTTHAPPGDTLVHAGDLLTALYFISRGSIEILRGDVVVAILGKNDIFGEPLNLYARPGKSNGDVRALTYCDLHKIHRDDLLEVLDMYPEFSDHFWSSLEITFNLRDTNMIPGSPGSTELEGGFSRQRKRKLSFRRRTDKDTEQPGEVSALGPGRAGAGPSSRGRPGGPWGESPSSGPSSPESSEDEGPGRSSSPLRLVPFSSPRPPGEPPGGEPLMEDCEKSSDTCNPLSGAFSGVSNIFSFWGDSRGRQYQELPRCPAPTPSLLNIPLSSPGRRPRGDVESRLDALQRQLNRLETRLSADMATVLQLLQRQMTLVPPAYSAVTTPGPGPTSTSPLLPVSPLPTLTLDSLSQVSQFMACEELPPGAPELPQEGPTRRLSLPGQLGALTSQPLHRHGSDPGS

Structure (SMILES)	inhibition at 100 µM (hERG potassium channel)	inhibition at 100 µM [1]	concentration at 3 days post infection [2]	half-life at 1 µM [3]	half-life at 1 µM [4]	Zebrafish embryo toxicity (zebrafish embryos)	half-life at 1 µM [5]
CC(=O)c1ccc(NC(=O)[C@@H](NC(=O)[C@@H](CC(C)C)P(=O)(O)O)C(C)C)cc1 [(R)‐30]	79.4%	84.8%	< 0.5 µM	–	–	–	–
CC(=O)c1ccc(NC(=O)[C@@H](NC(=O)C(CC(C)C)P(=O)(O)O)C(C)C)cc1 (stereo partly shown) [compound 30]	–	–	–	> 2 h	> 2 h	no signs of toxicity	> 4 h
